≈ marks a conversion by molar mass, not a printed value.
Experiments:
Aspergillus fumigatus [1] = assay: Antimicrobial activity against Aspergillus fumigatus incubated for 48 hrs by disc diffusion assay; type: functional
Staphylococcus aureus = assay: Antimicrobial activity against Staphylococcus aureus incubated for 24 hrs by disc diffusion assay; type: functional
HT-29 = assay: Antitumor activity against human HT-29 cells assessed as inhibition of cell viability incubated for 48 hrs by MTT assay; type: functional, cell-based; conditions: HT-29, 48 h
Candida albicans = assay: Antimicrobial activity against Candida albicans incubated for 48 hrs by disc diffusion assay; type: functional
HepG2 = assay: Antitumor activity against human HepG2 cells assessed as inhibition of cell viability incubated for 48 hrs by MTT assay; type: functional, cell-based; conditions: HepG2, 48 h
Bacillus cereus [2] = assay: Antimicrobial activity against Bacillus cereus incubated for 24 hrs by disc diffusion assay; type: functional
Escherichia coli [3] = assay: Antimicrobial activity against Escherichia coli incubated for 24 hrs by disc diffusion assay; type: functional
[4] = tested on: Chromobacterium violaceum; assay: Inhibition of quorum sensing system in Chromobacterium violaceum ATCC 12472 assessed as inhibition of violacein production at 5 mg/mL incubated for 48 hrs
MCF7 = assay: Antitumor activity against human MCF7 cells assessed as inhibition of cell viability incubated for 48 hrs by MTT assay; type: functional, cell-based; conditions: MCF7, 48 h
Bacillus cereus [5] = assay: Antimicrobial activity against Bacillus cereus incubated for 24 hrs by serial dilution method; type: functional
[6] = Binding affinity to DNA (unknown origin) assessed as reduction in absorption maxima for methyl green/DNA complex incubated for 24 hrs by methyl green/DNA displacement assay
Aspergillus fumigatus [7] = assay: Antimicrobial activity against Aspergillus fumigatus incubated for 48 hrs by serial dilution method; type: functional
Ehrlich [8] = assay: Antitumor activity against mouse EAC cells implanted in Swiss albino mouse assessed as mean survival time at 0.5 mg for 9 days (reference value: 14.5 day); type: functional
Mus musculus [9] = assay: Toxicity in mouse EAC cells implanted Swiss albino mouse assessed as RBC count at 0.5 mg for 9 days (reference value: 3.69 10^6/mm3); type: organism-based; conditions: in vivo, 216 h
WI-38 = assay: Cytotoxicity in human WI38 cells assessed as inhibition of cell viability incubated for 48 hrs by MTT assay; type: cell-based; conditions: WI-38, 48 h
Mus musculus [10] = assay: Toxicity in mouse EAC cells implanted Swiss albino mouse assessed as WBC count at 0.5 mg for 9 days (reference value: 23.96 10^3/mm3); type: organism-based; conditions: in vivo, 216 h
Ehrlich [11] = assay: Antitumor activity against mouse EAC cells implanted in Swiss albino mouse assessed as increase in life span at 0.5 mg for 9 days relative to untreated control; type: functional
Mus musculus [12] = assay: Toxicity in mouse EAC cells implanted Swiss albino mouse assessed as hemoglobin level at 0.5 mg for 9 days (reference value: 8.15 g/dl); type: organism-based; conditions: in vivo, 216 h
Ehrlich [13] = assay: Antitumor activity against mouse EAC cells implanted in Swiss albino mouse assessed as tumor volume at 0.5 mg for 9 days (reference value: 9.85 ml); type: functional
Escherichia coli [14] = assay: Antimicrobial activity against Escherichia coli incubated for 24 hrs by serial dilution method; type: functional

Row | Compound | diameter of the inhibition zone (DIZ) (Aspergillus fumigatus [1]) | diameter of the inhibition zone (DIZ) (Staphylococcus aureus) | IC50 (HT-29) | diameter of the inhibition zone (DIZ) (Candida albicans) | IC50 (HepG2) | diameter of the inhibition zone (DIZ) (Bacillus cereus [2]) | diameter of the inhibition zone (DIZ) (Escherichia coli [3]) | INH [4] | IC50 (MCF7) | MIC (Bacillus cereus [5]) | IC50 [6] | MIC (Aspergillus fumigatus [7]) | MST (Ehrlich [8]) | Activity (Mus musculus [9]) | IC50 (WI-38) | Activity (Mus musculus [10]) | ILS (Ehrlich [11]) | Activity (Mus musculus [12]) | Activity (Ehrlich [13]) | MIC (Escherichia coli [14])
1 | NNC(=O)c1c(N/N=C2/C(=O)NN=C2N)sc2c1CCCCC2 | <2 mm | <2 mm | 41.2 µM | <2 mm | 35.4 µM | <2 mm | <2 mm | 9 mm | 18.3 µM | – | – | – | – | – | – | – | – | – | – | –
2 | CCOC(=O)C(=NNc1sc2c(c1C(=O)OCC)CCC2)C(=O)OCC | <2 mm | 9 mm | > 100 µM | <2 mm | > 100 µM | 5 mm | 7 mm | < 2 mm | > 100 µM | – | – | – | – | – | – | – | – | – | – | –
3 | CCOC(=O)/C(C#N)=N/Nc1sc2c(c1C(=O)OCC)CCC2 | <2 mm | 11 mm | 72.1 µM | <2 mm | 58.2 µM | 7 mm | 7 mm | 8 mm | 45.5 µM | – | – | – | – | – | – | – | – | – | – | –
4 | CCOC(=O)c1c(-n2cnnn2)sc2c1CCCCC2 | <2 mm | 3 mm | > 100 µM | <2 mm | > 100 µM | 9 mm | 6 mm | < 2 mm | 62.5 µM | – | – | – | – | – | – | – | – | – | – | –
5 | Nc1nc2sc3c(c2c(=O)n1N)CCCCC3 | <2 mm | 5 mm | 51.6 µM | <2 mm | 82.7 µM | 17 mm | 11 mm | < 2 mm | 35.8 µM | 1250 µM (≈ 313 µg/mL) | – | – | – | – | – | – | – | – | – | –
6 | GENTAMICIN | – | – | – | – | – | – | – | – | – | 0.31 µM | – | – | – | – | – | – | – | – | – | –
7 | CC1=NNC(=O)/C1=N\Nc1sc2c(c1C(=O)NN)CCCCC2 | <2 mm | <2 mm | 66.7 µM | <2 mm | 81.7 µM | <2 mm | <2 mm | 5 mm | 41.2 µM | – | – | – | – | – | – | – | – | – | – | –
8 | CC(=O)c1c(O)c2c3c(sc2[nH]c1=O)CCCCC3 | 24 mm | 8 mm | 47.2 µM | 9 mm | 54.9 µM | 9 mm | 12 mm | 5 mm | 24.9 µM | – | 56.3 µM | 563 µM (≈ 156 µg/mL) | – | – | – | – | – | – | – | –
9 | CCOC(=O)/C(C#N)=N/Nc1sc2c(c1C(=O)OCC)CCCCC2 | <2 mm | 7 mm | 92.8 µM | 5 mm | > 100 µM | 5 mm | <2 mm | 4 mm | 70.9 µM | – | – | – | – | – | – | – | – | – | – | –
10 | CCOC(=O)c1c(N/N=C2\C(=O)NN=C2C)sc2c1CCCCC2 | <2 mm | <2 mm | 88.1 µM | 10 mm | 42.3 µM | <2 mm | <2 mm | < 2 mm | 52.4 µM | – | – | – | – | – | – | – | – | – | – | –
11 | NNC(=O)c1c(NN=C2C(=O)NNC2=O)sc2c1CCCCC2 | <2 mm | <2 mm | 49.4 µM | <2 mm | 32.6 µM | <2 mm | <2 mm | 6 mm | 28.7 µM | – | – | – | – | – | – | – | – | – | – | –
12 | NNC(=O)c1c(NN=C2C(=O)NNC2=O)sc2c1CCC2 | 17 mm | <2 mm | – | <2 mm | – | <2 mm | <2 mm | 8 mm | – | – | – | 1010 µM (≈ 313 µg/mL) | – | – | – | – | – | – | – | –
13 | CCOC(=O)c1c(N/N=C(\C(C)=O)C(=O)c2ccccc2)sc2c1CCCCC2 | 18 mm | <2 mm | 94.7 µM | 11 mm | 71.6 µM | <2 mm | <2 mm | 3 mm | 36.9 µM | – | – | 758 µM (≈ 313 µg/mL) | – | – | – | – | – | – | – | –
14 | CCOC(=O)c1c(N/N=C(\C(C)=O)C(=O)c2ccccc2)sc2c1CCC2 | 2 mm | 9 mm | 57.4 µM | <2 mm | 28.4 µM | 14 mm | 7 mm | 3 mm | 13.7 µM | – | 29.8 µM | – | 33.5 days | 4.79 ×10⁶ /mm3 | 67.8 µM | 9.62 ×10³ /mm3 | 130.95% | 11.74 g/dL | 3.53 mL | –
15 | CCOC(=O)C(=NNc1sc2c(c1C(=O)OCC)CCCCC2)C(=O)OCC | <2 mm | 5 mm | 86.8 µM | <2 mm | 76.3 µM | <2 mm | <2 mm | < 2 mm | 54 µM | – | – | – | – | – | – | – | – | – | – | –
16 | CCOC(=O)c1c(N/N=C2\C(=O)NN=C2C)sc2c1CCC2 | <2 mm | 7 mm | 84.5 µM | 8 mm | 92.4 µM | <2 mm | <2 mm | < 2 mm | 57.2 µM | – | – | – | – | – | – | – | – | – | – | –
17 | N#Cc1c(O)c2c3c(sc2[nH]c1=O)CCCCC3 | 8 mm | <2 mm | 27.3 µM | <2 mm | 22.7 µM | 3 mm | 3 mm | < 2 mm | 19.1 µM | – | – | – | – | – | – | – | – | – | – | –
18 | Oc1cc(O)c2c(c1)O[C@H](c1ccc(O)c(O)c1)[C@@H](O)C2 | – | – | – | – | – | – | – | 2 mm | – | – | – | – | – | – | – | – | – | – | – | –
19 | CCOC(=O)c1c(NC(=O)CC#N)sc2c1CCCCC2 | <2 mm | <2 mm | > 100 µM | 14 mm | > 100 µM | <2 mm | <2 mm | 2 mm | 60.4 µM | – | – | – | – | – | – | – | – | – | – | –
20 | CC(=O)C1(C(=O)c2ccccc2)N=Nc2sc3c(c2C1=O)CCCCC3 (configuration not stated) | <2 mm | 5 mm | 9.7 µM | <2 mm | 14.1 µM | 16 mm | <2 mm | 11 mm | 11.8 µM | 853 µM (≈ 313 µg/mL) | 21.4 µM | – | 43.3 days | 5.16 ×10⁶ /mm3 | 63.3 µM | 7.95 ×10³ /mm3 | 198.62% | 12.92 g/dL | 2.55 mL | –
21 | CCOC(=O)c1c(NC(=O)CC(C)=O)sc2c1CCCCC2 | <2 mm | <2 mm | > 100 µM | <2 mm | 89.7 µM | <2 mm | <2 mm | < 2 mm | 62.8 µM | – | – | – | – | – | – | – | – | – | – | –
22 | CCOC(=O)C1(C(C)=O)N=Nc2sc3c(c2C1=O)CCCCC3 (configuration not stated) | <2 mm | <2 mm | 78.6 µM | 5 mm | 91.2 µM | 5 mm | 17 mm | 3 mm | 50.2 µM | – | – | – | – | – | – | – | – | – | – | 934 µM (≈ 312 µg/mL)
23 | COc1cccc2c1C(=O)c1c(O)c3c(c(O)c1C2=O)C[C@@](O)(C(=O)CO)C[C@@H]3O[C@H]1C[C@H](N)[C@H](O)[C@H](C)O1 [DOXORUBICIN] | – | – | – | – | – | – | – | – | – | – | 32.4 µM | – | – | – | – | – | – | – | – | –
24 | O=c1[nH]cc(F)c(=O)[nH]1 [FLUOROURACIL] | – | – | 4.6 µM | – | 6.9 µM | – | – | – | 5.7 µM | – | – | – | 49 days | 5.21 ×10⁶ /mm3 | – | 8.86 ×10³ /mm3 | 237.9% | 12.96 g/dL | 1.6 mL | –
